PubChem BioAssay AID1552 (Sanford-Burnham Center for Chemical Genomics, 2009)
The source made the active and inactive calls. No rule for the calls is given here.

Target: Ubiquitin-conjugating enzyme E2 N (Homo sapiens) (UniProt P61088)
Experiment: NMR detection of UBE2N ligand binding – biophysical, purified protein (AID 1552)
Conditions: NMR binding to purified UBE2N

Sequence of Ubiquitin-conjugating enzyme E2 N (Homo sapiens) (P61088 whole entry, looked up): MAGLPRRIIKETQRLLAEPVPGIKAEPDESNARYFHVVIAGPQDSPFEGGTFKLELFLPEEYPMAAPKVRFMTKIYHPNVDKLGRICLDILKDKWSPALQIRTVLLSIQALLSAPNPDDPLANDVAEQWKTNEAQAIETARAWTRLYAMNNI

SMILES	Kd
O=C1NC(=S)NC(=O)C1=Cc1ccccc1O	> 4 mM (inactive)
CCOC(=O)c1sc(SC)c2c1CCCC2O (stereo not drawn)	> 4 mM (inactive)
COc1ccccc1NC(=O)C1CCCCC1	> 4 mM (inactive)
c1cncc(Cn2cccc2)c1	> 4 mM (inactive)
Nc1nnc(SCc2ccc(F)cc2)s1	> 4 mM (inactive)
NC(=O)CS(=O)(=O)c1ccc(Cl)cc1	> 4 mM (inactive)
NC(=O)CCn1ncc2ccccc21	> 4 mM (inactive)
Cc1nn(C)c2sc(CO)cc12	> 4 mM (inactive)
C[C@H](CCC(=O)O)[C@H]1CCC2C3C(CC[C@@]21C)[C@@]1(C)CC[C@@H](O)C[C@H]1C[C@H]3O (stereo partly drawn)	> 4 mM (inactive)
OCC(O)C(O)C(O)CO (stereo not drawn)	> 4 mM (inactive)
CC(=O)Oc1c2c(c3c(c1CC=C(C)C)O[C@]14C(=C[C@@H]5CC1C(C)(C)OC4(C/C=C(\C)C(=O)O)C5=O)C3=O)OC(C)(CCC=C(C)C)C=C2 (stereo partly drawn)	> 4 mM (inactive)
CC(=O)c1cccc(NC(=O)Nc2c(C)nn(C)c2C)c1	> 4 mM (inactive)
Cc1nc2ccccc2c2c1C(=O)N(N)C2=O	> 4 mM (inactive)
NC1CN2CCC1CC2 (stereo not drawn)	> 4 mM (inactive)
C/C1=C\CCC(=O)C2CC(C)(C)C2CC1 (stereo not drawn)	> 4 mM (inactive)
Cc1cc(C(=O)NCc2cccnc2)no1	> 4 mM (inactive)
O=C(O)c1csc(-c2ccccc2)n1	> 4 mM (inactive)
Cc1ccc(/C=N/NC(N)=O)o1	> 4 mM (inactive)
CS(=O)(=O)Cc1ccccc1	> 4 mM (inactive)
O=C(Nc1ccccn1)c1cc(-n2cnnc2)ccc1Cl	> 4 mM (inactive)

SMILES	Kd
CC(=O)Nc1ccc(Cl)c(C(N)=O)c1	> 4 mM (inactive)
COc1ccc2c(c1)CCCN2C(N)=O	> 4 mM (inactive)
Nc1cccnc1N1CCOCC1	> 4 mM (inactive)
CC(=O)OC1CCC23CC1(C)CCC2C(C)(C)CC3OC(C)=O (stereo not drawn)	> 4 mM (inactive)
NC(=O)NC(=O)Nc1ccc(Cl)cc1	> 4 mM (inactive)
c1cc(CNc2ccc3c(c2)OCCO3)ccn1	> 4 mM (inactive)
COc1c2c(c(CC=C(C)C)c3oc(=O)c(-c4ccc(O)cc4)c(O)c13)OC(C)(C)C=C2	> 4 mM (inactive)
O=C(O[C@@H]1Cc2c(O)cc(O)cc2O[C@@H]1c1cc(O)c(O)c(O)c1-c1c([C@H]2Oc3cc(O)cc(O)c3C[C@H]2O)cc(O)c(O)c1O)c1cc(O)c(O)c(O)c1	> 4 mM (inactive)
NS(=O)(=O)c1ccc(NC(=O)C(F)(F)F)cc1	> 4 mM (inactive)
CC12CCCC(O)(C1)C1CC(C)(C)C1CC2 (stereo not drawn)	> 4 mM (inactive)
COc1ccccc1-c1nc(=S)[nH][nH]1	> 4 mM (inactive)
O=C(O)c1cc2ccccc2s1	> 4 mM (inactive)
Cc1noc(C)c1C(=O)N1CCC(Cc2ccccc2)CC1	> 4 mM (inactive)
C=CCn1c(=S)[nH]c2ccc(Br)cc2c1=O	> 4 mM (inactive)
NC1=NC(=O)/C(=C/c2cccc([N+](=O)[O-])c2)S1	> 4 mM (inactive)
CCc1nnsc1C(=O)Nc1nccs1	> 4 mM (inactive)
COc1ccc(C(=O)O)cc1OC	> 4 mM (inactive)
O=C1CNC(=O)N1c1cccc(Cl)c1	> 4 mM (inactive)
Nc1cccc(-n2cccc2)c1	> 4 mM (inactive)
C=CCc1cc(C(=O)N2CCCCC2)ccc1O	> 4 mM (inactive)

SMILES	Kd
S=C(CN1CCCC1=S)N1CCOCC1	> 4 mM (inactive)
N=Cc1c(O)n(-c2cccc(Cl)c2)c(=O)[nH]c1=O	> 4 mM (inactive)
C[C@H]1O[C@@H](O[C@H]2[C@@H](O)C[C@H](O[C@H]3[C@@H](O)C[C@H](O[C@H]4CC[C@]5(C)C6CC[C@]7(C)[C@@H](C8=CC(=O)OC8)CC[C@]7(O)C6CC[C@@H]5C4)O[C@@H]3C)O[C@@H]2C)C[C@H](O)[C@@H]1O (stereo partly drawn)	> 4 mM (inactive)
CN(C)C(=O)CSc1cccc2cccnc12	> 4 mM (inactive)
O=C1NC(=S)N/C1=C\c1cccnc1	> 4 mM (inactive)
COc1cc(/C=C/C(=O)/C=C(O)/C=C/c2ccc(O)c(OC)c2)ccc1O	> 4 mM (inactive)
CC(=O)N/N=C(\C)c1cccc(N)c1	> 4 mM (inactive)
COc1c2occc2cc2ccc(=O)oc12	> 4 mM (inactive)
Clc1ccc(-n2ccnc2)nn1	> 4 mM (inactive)
Cc1cc(NC(=O)c2ocnc2C)no1	> 4 mM (inactive)
O=C(Nc1nc2c(s1)CCCC2)c1cccnc1	> 4 mM (inactive)
NCCC(=O)N[C@@H](Cc1cnc[nH]1)C(=O)O	> 4 mM (inactive)
OCc1csc(-c2cccs2)n1	> 4 mM (inactive)
CC(=O)O[C@H]1C[C@@H](OC(C)=O)C(C)(C)C2C[C@@H](OC(C)=O)[C@@]3(C)C4=CC(=O)O[C@@H](c5ccoc5)[C@]4(C)CCC3[C@]21C (stereo partly drawn)	> 4 mM (inactive)
CSc1ccc(/C=N/n2c(C)nnc2C)cc1	> 4 mM (inactive)
Cc1cc(C(=O)Nc2cccnc2)no1	> 4 mM (inactive)
Cc1c(C(=O)Nc2cnccn2)oc2ccccc12	> 4 mM (inactive)
Cc1scc(C(=O)Nc2ccon2)c1-c1ccccc1	> 4 mM (inactive)
